In patent US6492391B1, “Crystal modification d of 8-cyano-1-cyclopropyl-7-(1s, 6s- 2,8-diazabicyclo-[4.3.0]nonan-8-yl)-6-fluoro-1,4- dihydro-4-oxo-3-quinolinecarboxylic acid” (Bayer Aktiengesellschaft, priority 1999, dated 2002):

Legend:
[1] = storage stability of the crystal modification; assay type: physicochemical; conditions: prolonged storage; solid state
Excerpt: For these reasons, it is highly suitable for preparing tablets or other solid formulations. Owing to its stability, it gives these formulations the desired long-lasting storage stability. Using the crystal modification D, it is therefore possible to prepare, in a defined and targeted manner, stable solid preparations of CCDC.

pathogenic bacteria = experiment: activity against pathogenic bacteria; conditions: human or veterinary medicine
Excerpt: Its broad area of use corresponds to that of CCDC.

[2] = hygroscopicity of the solid; assay type: physicochemical; conditions: powder obtained by the prior-art preparation process
Excerpt: The partially amorphous powder which is obtained by the preparation process outlined above is furthermore hygroscopic. However, amorphous solids, and in particular hygroscopic solids, are difficult to handle when being processed pharmaceutically since, for example, they have low bulk densities and unsatisfactory flow properties. Moreover, the handling of hygroscopic solids requires special work techniques and apparatuses to obtain reproducible results, for example with respect to the active compound content or the stability of the solid formulations produced.

Row | Structure (SMILES) | stability of the crystal modification on storage [1] | activity against pathogenic bacteria (pathogenic bacteria) | hygroscopicity [2]
1 | N#Cc1c(N2C[C@@H]3CCCN[C@@H]3C2)c(F)cc2c(=O)c(C(=O)O)cn(C3CC3)c12 [CCDC of the crystal modification D, 8-cyano-1-cyclopropyl-7-(1S,6S-2,8-diazabicyclo[4.3.0]nonan-8-yl)-6-fluoro-1,4-dihydro-4-oxo-3-quinolinecarboxylic acid] | surprisingly stable and does not change into another crystal modification or the amorphous form, even on prolonged storage | highly active | –
2 | N#Cc1c(N2C[C@@H]3CCCN[C@@H]3C2)c(F)cc2c(=O)c(C(=O)O)cn(C3CC3)c12 [partially amorphous powder, 8-cyano-1-cyclopropyl-7-(1S,6S-2,8-diazabicyclo[4.3.0]nonan-8-yl)-6-fluoro-1,4-dihydro-4-oxo-3-quinolinecarboxylic acid] | – | – | hygroscopic
